The source of these data is patent publication US7902187B2, “6-substituted 2-(benzimidazolyl)purine and purinone derivatives for immunosuppression” (Wyeth LLC, priority 2006, dated 2011).

A value given as a limit tells only on which side of the number the result lay.

One experiment deals with T1, Jak3 (Homo sapiens, UniProt P52333).
T1 construct: A fragment encoding the catalytic domain of Jak3 (508aa to 1124aa) was ligated with GST at 5′ end; made in house; host or cells: Sf9 insect cells (baculovirus, pFastBac 1)
T1 sequence (P52333 508-1124): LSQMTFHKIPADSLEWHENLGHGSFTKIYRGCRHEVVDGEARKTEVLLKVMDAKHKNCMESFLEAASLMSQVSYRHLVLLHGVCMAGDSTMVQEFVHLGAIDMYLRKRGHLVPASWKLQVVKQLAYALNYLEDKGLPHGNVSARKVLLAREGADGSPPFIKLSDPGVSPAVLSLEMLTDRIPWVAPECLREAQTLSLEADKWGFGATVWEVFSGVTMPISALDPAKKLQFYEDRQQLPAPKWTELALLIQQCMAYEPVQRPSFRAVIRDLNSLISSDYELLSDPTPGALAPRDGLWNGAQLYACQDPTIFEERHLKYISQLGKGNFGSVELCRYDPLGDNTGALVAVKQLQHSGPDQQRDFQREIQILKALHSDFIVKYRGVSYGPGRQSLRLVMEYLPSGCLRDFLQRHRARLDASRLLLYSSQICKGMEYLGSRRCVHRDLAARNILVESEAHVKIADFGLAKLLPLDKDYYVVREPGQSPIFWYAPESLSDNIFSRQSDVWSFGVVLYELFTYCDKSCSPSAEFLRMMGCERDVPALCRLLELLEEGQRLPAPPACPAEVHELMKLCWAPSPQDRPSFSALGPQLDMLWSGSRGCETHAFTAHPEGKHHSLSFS
Briefly: Jak3 Kinase Assay (HTRF). Type of experiment: biochemical. Particulars: GST-Jak3 catalytic domain, 1 μM ATP, 60-min incubation; read-out: Jak3 Kinase, IC50 representation. The method, then: Human Jak3 cDNA was amplified by PCR. A fragment encoding the catalytic domain of Jak3 (508aa to 1124aa) was ligated with GST at 5′ end. This fused GST-Jak3 DNA fragment was cloned into the EcoRI site of the donor plasmid pFastBac 1 (Life Technologies #10359-016). The transformation, transposition, and transfection of insect cells (Sf9) were performed according to the manufacture's instructions. The cell lysate containing recombinant GST-Jak3 was used in the kinase assay. Anti-GST antibody (10 μg/ml, Sigma #G1417) was coated onto a 384-well plate at 4° C. overnight. Cell lysate containing GST-Jak3 (1:100 dilution) was added to the anti-GST coated plates, and GST-Jak3 was captured by immobilized anti-GST antibody. Testing compounds and substrate mix (50 mM HEPES, pH 7, 0.5 mM Na3VO4, 25 mM MgCl2, 1 mM DTT, 0.005% BSA, 1 μM ATP, and 4.5 μg/ml biotinyl poly-Glu,Ala,Tyr) were added to the plate to initiate the reaction. After a 60-min incubation, the reaction was stopped by 4 mM EDTA, and phosphorylation of biotinyl poly-Glu,Ala,Tyr was detected using 17 μg/ml Cy5-streptavidin (Amersham, #PA92005) and 2.7 μg/ml Europium-conjugated anti-phosphotyrosine antibody (PerkinElmer #AD0069) using homogeneous time-resolved fluorescence (HTRF) technology.
On to `O=c1[nH]c2c(N3CCC(O)C3)nc(-n3cnc4ccc(F)cc43)nc2n1C1CCOCC1` (stereo not drawn), for which the half-inhibitory concentration (IC50) (as a rule, the concentration needed to halve the response being measured) is below 100 nM.
The same measure, in the same setting: for `N#Cc1ccc2ncn(-c3nc(N4CCCC(O)CC4)c4[nH]c(=O)n(C5CCOCC5)c4n3)c2c1` (stereo not drawn) the value was below 100 nM; for `N#CCCCc1nc(-n2cnc3ccc(F)cc32)nc2c1[nH]c(=O)n2[C@@H]1CCOc2c(F)cccc21`, below 100 nM; for `O=c1[nH]c2c(OCC3CC3)nc(-n3cnc4ccc(F)cc43)nc2n1C1CCOCC1`, 100 to 1000 nM.
Regarding `N#Cc1ccc2ncn(-c3nc(N4CCOCC4)c4[nH]c(=O)n(C5CCOCC5)c4n3)c2c1`, the IC50 was below 100 nM.
For `O=c1[nH]c2c(N3CC(O)C3)nc(-n3cnc4ccc(F)cc43)nc2n1C1CCOCC1`, the IC50 is below 100 nM.
Regarding `O=c1[nH]c2c(NC3CNC3)nc(-n3cnc4ccc(F)cc43)nc2n1C1CCOCC1`, the half-inhibitory concentration (IC50) is below 100 nM.
Still for that read-out and setting: the value for `O=c1[nH]c2c(N3CCC3)nc(-n3cnc4ccc(Cl)cc43)nc2n1C1CCOCC1` was below 100 nM.
Still for that read-out and setting: for `O=c1[nH]c2c(C3CCC3)nc(-n3cnc4ccc(F)cc43)nc2n1C1CCOCC1` the value was 100 to 1000 nM.
The same measure, in the same setting: for `CC(C)(C)NS(=O)(=O)c1cccc(-c2nc(-n3cnc4ccc(F)cc43)nc3c2[nH]c(=O)n3C2CCOCC2)c1` the value was below 100 nM.
With `Cn1c(=O)n([C@H]2CC[C@H](O)CC2)c2nc(-n3cnc4ccc(F)cc43)nc(N3CC[C@H](F)C3)c21`, the IC50 is below 100 nM.
As for `O=c1[nH]c2c(OC3CCOC3)nc(-n3cnc4ccc(F)cc43)nc2n1C1CCOCC1` (stereo not drawn), the IC50 lay in the range of 100 to 1000 nM.
As for `O=C(O)c1nc(-n2cnc3ccc(F)cc32)nc2c1[nH]c(=O)n2C1CCOc2ccccc21` (stereo not drawn), the IC50 was below 100 nM.
Same read-out and setting: for `CN1CCCN(c2nc(-n3cnc4ccc(F)cc43)nc3c2[nH]c(=O)n3C2CCOCC2)CC1` the value was below 100 nM.
On to `N#Cc1ccc2ncn(-c3nc(NCCCN4CCCCC4)c4[nH]c(=O)n(C5CCOCC5)c4n3)c2c1`, for which the half-inhibitory concentration (IC50) is below 100 nM.
As to `O=c1[nH]c2c(N3CCC3)nc(-n3cnc4ccc(F)cc43)nc2n1C1CCOCC1`, the IC50 was below 100 nM.
On the same count and under the same terms, for `O=c1[nH]c2c(OC3CCC3)nc(-n3cnc4ccc(F)cc43)nc2n1C1CCOCC1` the value was below 100 nM; for `N#Cc1ccc2ncn(-c3nc(NC4CCC4)c4[nH]c(=O)n(C5CCOCC5)c4n3)c2c1`, below 100 nM.
For `O=c1[nH]c2c(N3CCC(F)(F)CC3)nc(-n3cnc4ccc(F)cc43)nc2n1C1CCOCC1`, the IC50 was below 100 nM.
`N#Cc1ccc(-c2nc(-n3cnc4ccc(F)cc43)nc3c2[nH]c(=O)n3C2CCOCC2)cc1`: the IC50 was below 100 nM.
As to `O=C(c1nc(-n2cnc3ccc(F)cc32)nc2c1[nH]c(=O)n2C1CCOc2ccccc21)N1CCCCC1` (stereo not drawn), the IC50 is below 100 nM.
Same read-out and setting: the value for `O=c1[nH]c2c(-c3ccccc3)nc(-n3cnc4ccc(F)cc43)nc2n1C1CCOCC1` was below 100 nM; that for `O=c1[nH]c2c(-c3cccc4[nH]ccc34)nc(-n3cnc4ccc(F)cc43)nc2n1C1CCOCC1` was below 100 nM; that for `Cn1c(=O)n([C@H]2CC[C@H](O)CC2)c2nc(-n3cnc4ccc(F)cc43)nc(N3CCC3)c21` was below 100 nM.
Same read-out and setting: for `O=c1[nH]c2c(N3CCC(F)(F)C3)nc(-n3cnc4ccc(F)cc43)nc2n1C1CCOCC1` the value was below 100 nM; for `N#Cc1ccc2ncn(-c3nc(N4CC(O)C4)c4[nH]c(=O)n(C5CCOCC5)c4n3)c2c1`, below 100 nM; for `O=c1[nH]c2c(-c3ccncc3)nc(-n3cnc4ccc(Cl)cc43)nc2n1C1CCOCC1`, below 100 nM.
On the same count and under the same terms, for `Cn1c(=O)n(C2CCOCC2)c2nc(-n3cnc4ccc(Cl)cc43)nc(N3CC(F)(F)C3)c21` the value was below 100 nM.
Take `N#Cc1ccc(-c2nc(-n3cnc4ccc(F)cc43)nc3c2[nH]c(=O)n3[C@@H]2CCOc3c(F)cccc32)cc1`: the IC50 fell in the range of 100 to 1000 nM.
`Cn1c(=O)n([C@H]2CC[C@H](O)CC2)c2nc(-n3cnc4ccc(F)cc43)nc(N3CCCCC3)c21`: the IC50 is below 100 nM.
The same measure, in the same setting: for `N#Cc1ccc2ncn(-c3nc(N4CC(F)(F)C4)c4[nH]c(=O)n(CC5CCOC5)c4n3)c2c1` (stereo not drawn) the value was below 100 nM; for `O=c1[nH]c2c(-c3cccc4cnccc34)nc(-n3cnc4ccc(F)cc43)nc2n1C1CCOCC1`, 100 to 1000 nM.
Still for that read-out and setting: the value for `O=c1[nH]c2c(-c3ccccc3)nc(-n3cnc4ccccc43)nc2n1C1CCOCC1` was 100 to 1000 nM; that for `O=c1[nH]c2c(-c3cccnc3)nc(-n3cnc4ccc(F)cc43)nc2n1C1CCOCC1` was below 100 nM; that for `CC(C)(C)OC(=O)NCCCNc1nc(-n2cnc3ccc(C#N)cc32)nc2c1[nH]c(=O)n2C1CCOCC1` was below 100 nM.
Still for that read-out and setting: for `O=c1[nH]c2c(NCc3ccccc3)nc(-n3cnc4ccc(F)cc43)nc2n1C1CCOCC1` the value was 100 to 1000 nM; for `N#Cc1ccc2ncn(-c3nc(N4CCC4)c4[nH]c(=O)n(C5CCOCC5)c4n3)c2c1`, below 100 nM.
Regarding `O=c1[nH]c2c(-c3cn[nH]c3)nc(-n3cnc4ccc(F)cc43)nc2n1C1CCOCC1`, the IC50 was below 100 nM.
Same read-out and setting: for `O=c1[nH]c2c(Oc3cccnc3)nc(-n3cnc4ccc(F)cc43)nc2n1C1CCOCC1` the value was below 100 nM; for `CCOC(=O)c1nc(-n2cnc3ccc(F)cc32)nc2c1[nH]c(=O)n2C1CCOc2ccccc21` (stereo not drawn), 100 to 1000 nM.
Same read-out and setting: for `O=c1[nH]c2c(N3CC(F)(F)C3)nc(-n3cnc4ccc(F)cc43)nc2n1C1CCOCC1` the value was below 100 nM; for `O=c1[nH]c2c(NCC3CC3)nc(-n3cnc4ccc(F)cc43)nc2n1[C@@H]1CCOc2c(F)cccc21`, 100 to 1000 nM.
Consider `O=c1[nH]c2c(NC3CCC3)nc(-n3cnc4ccc(F)cc43)nc2n1C1CCOCC1`, for which the IC50 is below 100 nM.
Still for that read-out and setting: the value for `C[C@H](Nc1nc(-n2cnc3ccc(F)cc32)nc2c1[nH]c(=O)n2C1CCOCC1)c1ccccc1` was 100 to 1000 nM.

System in a further experiment: not given
Test: not given
Particulars: NOD mouse; cited from earlier work.
In the case of `COc1cc2ncnc(Nc3ccc(O)cc3)c2cc1OC` [JANEX-1], the “spontaneous autoimmune diabetes development” value is reported as “prevent spontaneous autoimmune diabetes development”.

System in the next experiment: not given
Test: not given
The conditions noted are these: in vivo; cited from earlier work.
With `COc1cc2ncnc(Nc3ccc(O)cc3)c2cc1OC` [JANEX-1], the “severity of GVHD” value is “attenuate the severity of GVHD”.

The next experiment deals with T2, Jak3 (Homo sapiens, UniProt P52333).
T2 construct: host or cells: leukemia cells (not specified)
T2 sequence (P52333 1-1124): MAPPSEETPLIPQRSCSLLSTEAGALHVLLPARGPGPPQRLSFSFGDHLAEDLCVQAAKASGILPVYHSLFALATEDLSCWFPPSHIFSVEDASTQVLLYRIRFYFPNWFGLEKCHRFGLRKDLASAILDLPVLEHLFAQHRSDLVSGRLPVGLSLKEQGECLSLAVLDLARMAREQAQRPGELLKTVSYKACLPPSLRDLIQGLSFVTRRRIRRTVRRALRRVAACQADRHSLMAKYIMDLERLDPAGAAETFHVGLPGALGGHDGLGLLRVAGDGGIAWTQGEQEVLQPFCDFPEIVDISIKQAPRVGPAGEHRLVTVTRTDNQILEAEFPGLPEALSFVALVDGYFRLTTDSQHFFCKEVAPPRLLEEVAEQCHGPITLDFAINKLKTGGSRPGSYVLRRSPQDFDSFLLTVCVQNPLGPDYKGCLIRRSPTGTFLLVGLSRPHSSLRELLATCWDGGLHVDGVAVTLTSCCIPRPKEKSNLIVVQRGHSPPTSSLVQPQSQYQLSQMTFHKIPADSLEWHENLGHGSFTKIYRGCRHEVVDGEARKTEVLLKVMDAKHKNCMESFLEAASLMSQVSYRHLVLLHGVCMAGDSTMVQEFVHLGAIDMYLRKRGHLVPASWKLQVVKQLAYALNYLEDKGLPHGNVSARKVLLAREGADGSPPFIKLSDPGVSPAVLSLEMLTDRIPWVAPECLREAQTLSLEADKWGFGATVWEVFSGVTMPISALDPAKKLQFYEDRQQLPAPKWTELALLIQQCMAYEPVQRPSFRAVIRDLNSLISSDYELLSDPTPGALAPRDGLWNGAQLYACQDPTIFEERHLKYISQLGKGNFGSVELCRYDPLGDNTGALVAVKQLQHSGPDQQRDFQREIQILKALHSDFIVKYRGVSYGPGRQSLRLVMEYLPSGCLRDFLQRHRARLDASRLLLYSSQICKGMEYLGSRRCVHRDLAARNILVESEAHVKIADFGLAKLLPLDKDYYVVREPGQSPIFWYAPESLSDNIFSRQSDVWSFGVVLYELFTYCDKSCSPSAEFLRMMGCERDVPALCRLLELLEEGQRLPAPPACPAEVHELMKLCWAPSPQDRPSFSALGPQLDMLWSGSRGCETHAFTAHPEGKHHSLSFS
Test: not given
The conditions noted are these: leukemia cells; cited from earlier work.
For `COc1cc2ncnc(Nc3ccc(O)c(Br)c3)c2cc1OC` [WHI-P154], the “selectivity of Jak3 inhibition” value is listed as “selective inhibitors of Jak3”.
Take `COc1cc2ncnc(Nc3ccc(O)cc3)c2cc1OC` [JANEX-1]: the “selectivity of Jak3 inhibition” value was “selective inhibitors of Jak3”.
